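Tested at 5 concentrations; 48 h exposure; 96-well plates; endpoints linearly interpolated, else capped at highest concentration. TGI: total growth inhibition.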
Columns and labels:
Test in all cases: NCI tumour cell line growth inhibition, 48 h
DLD-1 colon = tested on: DLD-1 colon
HOP-18 NSCLC = tested on: HOP-18 NSCLC
KM20L2 colon = tested on: KM20L2 colon
P388 leukemia = tested on: P388 leukemia
P388/ADR leukemia = tested on: P388/ADR leukemia
SN12K1 renal = tested on: SN12K1 renal
XF 498 CNS = tested on: XF 498 CNS
LXFL 529 NSCLC = tested on: LXFL 529 NSCLC

In the case of `CC(C)(C)OC(=O)NC1CCC(C(C)(C)C)CC1` (centres undefined), the TGI (DLD-1 colon) was > 100 µM, the TGI (HOP-18 NSCLC) was > 100 µM and the TGI (KM20L2 colon) was > 100 µM. The TGI (P388 leukemia) was 48.5 µM, the TGI (P388/ADR leukemia) was > 100 µM and the TGI (SN12K1 renal) was > 100 µM. For the same compound, the TGI (XF 498 CNS) was > 96.5 µM.

`C=C1C(=O)OC2CC1CCC1(C)OC1CCC(C)=CCCC2(C)O` (centres undefined) was tested, and the TGI (DLD-1 colon) was 6.12 µM, the TGI (HOP-18 NSCLC) was 3.37 µM and the TGI (KM20L2 colon) was 8.58 µM. For the same compound, the TGI (P388 leukemia) was 3.06 µM, the TGI (P388/ADR leukemia) was 10.8 µM and the TGI (SN12K1 renal) was 11.9 µM. It also gave a TGI (XF 498 CNS) of 8.47 µM.

For `O=C(Oc1ccc(Cl)cc1[N+](=O)[O-])c1ccccc1`, the TGI (DLD-1 colon) was > 100 µM, the TGI (HOP-18 NSCLC) was > 100 µM and the TGI (KM20L2 colon) was > 100 µM. The TGI (LXFL 529 NSCLC) was > 100 µM and the TGI (XF 498 CNS) was > 100 µM.

For `COc1ccc(OC)c(CC(C)N)c1` (centres undefined), the TGI (DLD-1 colon) was > 100 µM, the TGI (HOP-18 NSCLC) was > 100 µM and the TGI (KM20L2 colon) was > 100 µM. For the same compound, the TGI (LXFL 529 NSCLC) was > 100 µM and the TGI (XF 498 CNS) was > 100 µM.

Source: PubChem BioAssay (NCI)
